The assay has as its target T1, DNA topoisomerase 1 (Homo sapiens, UniProt P11387).
T1 sequence (P11387 whole entry): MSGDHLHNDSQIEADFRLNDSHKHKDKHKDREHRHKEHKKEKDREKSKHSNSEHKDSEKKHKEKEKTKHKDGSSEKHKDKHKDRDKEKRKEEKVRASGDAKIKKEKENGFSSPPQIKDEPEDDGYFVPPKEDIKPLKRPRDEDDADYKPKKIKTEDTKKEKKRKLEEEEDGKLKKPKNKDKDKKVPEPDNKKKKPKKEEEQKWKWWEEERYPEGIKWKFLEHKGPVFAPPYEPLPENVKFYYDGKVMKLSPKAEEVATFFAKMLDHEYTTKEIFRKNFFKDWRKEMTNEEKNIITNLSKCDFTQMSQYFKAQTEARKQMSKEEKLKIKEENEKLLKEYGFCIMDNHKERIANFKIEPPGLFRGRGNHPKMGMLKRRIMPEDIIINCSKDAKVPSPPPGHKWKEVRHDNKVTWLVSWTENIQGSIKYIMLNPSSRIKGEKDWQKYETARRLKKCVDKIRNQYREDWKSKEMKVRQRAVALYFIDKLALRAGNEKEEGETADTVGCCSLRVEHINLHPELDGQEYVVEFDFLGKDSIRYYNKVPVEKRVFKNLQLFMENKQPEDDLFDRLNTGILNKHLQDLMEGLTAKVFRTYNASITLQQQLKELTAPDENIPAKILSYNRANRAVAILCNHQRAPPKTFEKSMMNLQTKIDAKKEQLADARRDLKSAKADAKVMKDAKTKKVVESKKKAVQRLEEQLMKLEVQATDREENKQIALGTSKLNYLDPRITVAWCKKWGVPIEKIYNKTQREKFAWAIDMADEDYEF
The assay is described as follows: Inhibition of topoisomerase I-DNA complex in trapping assay.

As to `O=C1NC(=O)c2c1c1c3ccc(O)cc3[nH]c1c1c2c2ccc(O)cc2n1C1OC(CO)C(O)C(O)C1O` (stereo unspecified), the IC50 (commonly the concentration that inhibits the measured activity by half) is 30 nM.

The values are drawn from ChEMBL document CHEMBL1143564, “Structures of three classes of anticancer agents bound to the human topoisomerase I-DNA covalent complex” (J Med Chem, 2005).
